Results: US12559504B2, “Benzotriazole derivative” (UBE CORPORATION, priority 2019, dated 2026)

Legend:
[1] = Metabolism test using human liver microsome fractions; assay type: in vitro ADME; conditions: human liver microsomes, test compound 10 μmol/L, NADPH and UDP-glucuronic acid, 37° C.
Protocol: A reaction composition solution (comprising NADPH Regenerating System, Solution A (manufactured by Corning Inc., REF. 451220) (50 μL), NADPH Regenerating System, Solution B (manufactured by Corning Inc., REF. 451200) (10 μL), 250 mM UDP-glucuronic acid (40 μL), UGT Reaction Mix Solution B (manufactured by Corning Inc., REF. 451320) (200 μL), and distilled water (640 μL)) in which human liver microsomes (manufactured by Xenotech, Cat. No. H610) or monkey liver microsomes (manufactured by Xenotech, Cat. No. P2000) (corresponding to 1 mg of protein) were suspended was prepared. After the solution was incubated at 37° C. for 5 minutes, each test compound dissolved into DMSO (manufactured by FUJIFILM Wako Pure Chemical Corporation, Code No. 043-07216) was added to the solution so that the final concentration was set to be 10 μmol/L, and a reaction was initiated. After 0, 5, 10, 15, 20, and 30 minute(s) from the initiation of the metabolism reaction, 100 μL of the reaction solution was taken out of the reaction system, and added to 200 μL of acetonitrile to stop the reaction. After the reaction was completed, the reaction solution was subjected to a work-up such as deproteinization, and then subjected to an UV-HPLC analysis to carry out the following analysis.
The peak area of each test compound was calculated by LabSolution software (Shimadzu Corporation), and the residual ratio (%) at each culture time of test material was calculated by the following equation. Residual ratio (%)=Peak area at each culture time[…]Peak area at 0 (initial time)
Next, the residual amount (nmol/mg/mL) at each culture time of test material was calculated by the following equation. Residual amount (nmol/mg/mL)=Initial concentration of reaction solution (10 nmol/mg/mL)×residual ratio÷100
Finally, a graph in which the reaction time was plotted at horizontal axis and the residual amount was plotted at longitudinal axis was prepared on Excel, and the inclination was calculated as the elimination rate (pmol/min/mg-P) within the time range in which the graph was deemed linear.

[2] = molecular target: T1, GST fusion human Keap1 (amino acid residue: 325-624) protein (Homo sapiens, UniProt Q14145); experiment: Keap1-Nrf2 binding inhibition test (fluorescence polarization); conditions: compound concentration of 100 nM; read-out: inhibition rate
T1 construct: GST fusion human Keap1 (amino acid residue: 325-624) protein; purchased Protein tech Ag0779
T1 sequence (Q14145 325-624): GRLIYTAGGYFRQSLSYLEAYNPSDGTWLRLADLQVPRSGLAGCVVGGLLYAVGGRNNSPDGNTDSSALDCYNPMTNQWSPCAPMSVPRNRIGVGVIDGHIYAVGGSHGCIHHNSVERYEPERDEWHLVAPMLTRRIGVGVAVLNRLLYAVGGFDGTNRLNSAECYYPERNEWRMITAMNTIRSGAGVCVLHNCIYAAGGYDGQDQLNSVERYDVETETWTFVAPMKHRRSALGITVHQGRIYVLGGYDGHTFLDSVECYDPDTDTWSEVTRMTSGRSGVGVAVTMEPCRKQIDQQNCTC
Protocol: The inhibitory activity of each test compound on the binding between Nrf2 and Keap1 was measured by the fluorescence polarization method. A solution consisting of 20 mM tris-hydrochloride pH7.5 (NIPPON GENE CO., LTD., REF: 318-90225), 150 mM NaCl [FUJIFILM Wako Pure Chemical. Corporation, REF: 191-01665], 0.05% Tween 20 (BioRAD, REF: 161-0781), and 5 mM DTT (FUJIFILM Wako Pure Chemical Corporation, REF: 049-08972) was used as a buffer solution. To a test compound solution (70 μL) adjusted to each concentration with 10% DMSO (FUJIFILM Wako Pure Chemical Corporation, REF: 043-07216) was added a buffer solution (350 μL) comprising 6 nM FITC-labeled Nrf2 peptide (FITC-Ahx-LDEETGEFL-NH2, Invitrogen) and 0.2 mg/mL of BSA (FUJIFILM Wako Pure Chemical Corporation, REF: 017-22231). Each 120 μL of the resulting mixture was dispensed into a black 96 well plate, and a buffer solution (80 μL) comprising 2.5 nM GST fusion human Keap1 (amino acid residue: 325-624) protein (Protein tech, REF: Ag0779) was added thereto. A Keap1-free buffer solution was added to some wells to prepare negative controls. Meanwhile, compound-free wells were used as positive controls. The plate was incubated at room temperature for 30 minutes, and each fluorescence polarization at excitation wavelength of 482 nm and fluorescence wavelength of 530 nm was measured by using a plate reader Clariostar (BMG Labtech). The fluorescence polarization of the negative control was set to be 100% inhibition, fluorescence polarization of the positive control was set to be 0% inhibition, and the inhibition rate of each test compound at 100 nM was calculated by using the following equation. Inhibition rate (%)=100−((Fluorescence polarization when test compound was added−Fluorescence polarization of negative control)/(Fluorescence polarization of positive control−Fluorescence polarization of negative control))×100

[3] = tested on: NQO1; experiment: NQO1 enzyme induction test (in vitro) in Hepa1c1c7 cells; assay type: cell-based; conditions: Mus musculus, Hepa-1c1c7, 48 h, concentration to elevate the NQO1 activity by 1.5 times, about 48 hours, read-out: EC150
Protocol: Each NQO1 assay was carried out by modifying a known method (Anal Biochem 1998; 169: 328-, Methods Enzymol 2004; 382: 243-). Hepa1c1c7 cells (mouse hepatocyte line manufacture by DS Pharma Biomedical Co., Ltd., REF. No. 95090613) were cultured (5% CO2, 37° C.). The cells were cultured in MEMα (manufactured by FUJIFILM Wako Pure Chemical Corporation, REF. 135-15175) medium comprising 10% FBS (manufactured by GIBCO, REF. 10082) and […]/streptomycin/amphotericin B (manufactured by GIBCO, REF. 15240), and dispensed into a 96 well plate (manufactured by Costar, REF. 3610) at 2.0×10^3 cells/well. On the next day, test compound (final concentration of […]: 0.1%) dissolved into DMSO (manufactured by FUJIFILM Wako Pure Chemical Corporation, REF. 043-07216) was added to each well, and the plate was further cultured for about 48 hours.
A cell lysate manufactured by Cell signaling Technology, Inc. (REF. 9803) with the addition of a Protease Inhibitor manufactured by Roche Diagnostics K.K. (REF. 11-873580001) was used. A reaction solution (which is a solution comprising trishydrochloric acid (25 mM), albumin […], Tween-20 (0.01%), glucose-6-phosphate dehydrogenase (2 U/mL), flavin-adenine dinucleotide (5 μM), glucose-6-phosphate (1 μM), nicotinamide adenine dinucleotide phosphate (30 μM), 3-(4,5-dimethyl-2-thiazolyl)-2,5-diphenyltetrazolium bromide (MTT) (0.03%), and menadione (50 μM)), and a stop solution (which is a solution comprising dicumarol (0.3 mM) and potassium dihydrogen phosphate (5 mM), pH 7.4) were prepared. After the medium was removed, cell lysate (50 μL) was added thereto, and the resulting mixture was shaken at room temperature for 20 minutes. The reaction solution (200 μL) was added thereto, and the resulting mixture was left to stand at room temperature for 5 minutes. The stop solution (50 μL) was added thereto, and absorbance at 540 nm (reference 750 nm) was measured.
Cell number was measured by Cell Titer Glo assay (manufactured by Promega Corporation, REF. G9242) by using another plate prepared according to the same conditions as those described above, and correction of absorbance was carried out. The test result was analyzed by Excel, and the EC150 value which is the concentration to elevate the NQO1 activity by 1.5 times was calculated.

[4] = tested on: NQO1; experiment: NQO1 expression induction test in mouse kidney (single administration); assay type: in vivo; conditions: Mus musculus, po, 6 h, Dose 10 mg/kg, BALB/c mouse kidney, 6 hours after administration, ratio to control group
Protocol: Each test compound solution for administration was prepared by dissolving or suspending each test compound into a 0.5 w/v % aqueous solution of methylcellulose (0.5% MC) (manufactured by Wako Pure Chemical Industries, Ltd.).
Each prepared test compound was orally administered to a BALB/c mouse (female, provided by Charles River Laboratories Japan, Inc.). Non-treated group was used as a control group. After 6 hours from the administration, each mouse was anesthetized with isoflurane, and euthanized with bloodletting by incising a lower aorta. Immediately, the left kidney was excised, cut into small pieces, and then the cut kidney pieces were transferred to RNA later (Thermo Fisher Scientific).
Then, mRNA was extracted from the collected kidney pieces by using NucleoSpin (registered trademark) RNA Kit (Takara Bio Inc.), each concentration was quantified by FlexStation3 (Molecular Devices), and then the concentration was adjusted to a constant concentration. A reverse transcription synthesis of cDNA was carried out from the mRNA with the constant concentration by using PrimeScript™ RT reagent Kit with gDNA Eraser and PCR Thermal Cycler (Takara Bio Inc.). Then, in addition to the resulting cDNA, SYBR (registered trademark) Premix Ex Taq™ II and NQO1, GAPDH primer (Takara Bio Inc.) were used to carry out Real-time PCR by PCR Thermal Cycler Dice Real time (Takara Bio Inc.), and the NQO1 expression was quantified by using the GAPDH expression as the reference.
In order to evaluate the NQO1 expression induction in each group, the NQO1 expression induction ratio was calculated by using the following equation. (NQO1 expression induction ratio)=(Average NQO1 expression in test compound administered group)[…](Average NQO1 expression in control group)

Row | SMILES | Human metabolic rate [1] | inhibition at 0.1 µM [2] [%] | EC (1.5-fold NQO1 activity) [3] [µM] | fold induction at 10 mg/kg [4]
1 | Cc1ccc(C(c2ccc3c(nnn3C)c2C)C(C)(C)C(=O)O)cc1CN1Cc2cc3ncccc3cc2OC2(CC2)C1 (single isomer, unassigned) [Example 85, 3-(3-((3′H-spiro[cyclopropane-1,2′-[1,4]oxazepino[7,6-g]quinoline]-4′(5′H)-yl)methyl)-4-methylphenyl)-3-(1,4-dimethyl-1H-benzo[d][1,2,3]triazol-5-yl)-2,2-dimethylpropanoic Acid] | A (metabolic rate<100 pmol/min/mg protein) | ≥ 50 | 0.0005 to 0.005 | 
2 | CC[C@@H]1CN(Cc2cc(C(c3ccc4c(nnn4C)c3C)C(C)(C)C(=O)O)ccc2C)Cc2c(ccc3cn[nH]c23)O1 (stereo partly drawn) [Example 20-(b), 3-(1,4-dimethyl-1H-benzo[d][1,2, 3]triazol-5-yl)-3-(3-(((R)-7-ethyl-1,7,8,10-tetrahydro-9H-[1,4]oxazepino[7,6-g]indazol-9-yl)methyl)-4-methylphenyl)-2,2-dimethylpropanoic Acid] | D (200≤metabolic rate<250 pmol/min/me protein) | ≥ 50 | 0.0005 to 0.005 | 
3 | CC[C@@H]1CN(Cc2cc(C(c3ccc4c(nnn4C)c3C)C(C)(C)C(=O)O)ccc2C)Cc2nc3ccccc3cc2O1 (single isomer, unassigned) [Example 37] | A (metabolic rate<100 pmol/min/mg protein) | ≥ 50 |  | > 6
4 | CC[C@@H]1CN(Cc2cc(C(c3ccc4c(nnn4C)c3C)C(C)(C)C(=O)O)ccc2C)Cc2cc3ncccc3cc2O1 (single isomer, unassigned) [Example 41] | A (metabolic rate<100 pmol/min/mg protein) | ≥ 50 |  | > 6
5 | CC[C@@H]1CN(Cc2cc(C(c3ccc4c(nnn4C)c3C)C(C)(C)C(=O)O)ccc2C)Cc2c(ccc3cn[nH]c23)O1 (single isomer, unassigned) [Example 43] | A (metabolic rate<100 pmol/min/mg protein) | ≥ 50 |  | > 6
6 | CC[C@@H]1CN(Cc2cc(C(c3ccc4c(nnn4C)c3C)C(C)(C)C(=O)O)ccc2C)Cc2cc3c(cc2O1)CCC3 (single isomer, unassigned) [Example 31] | B (100≤metabolic rate<150 pmol/min/mg protein) | ≥ 50 |  | 3 to 6
7 | CC[C@H]1CN(Cc2cc(C(c3ccc4c(nnn4C)c3C)C(C)(C)C(=O)O)ccc2C)Cc2ncc3ccccc3c2O1 (single isomer, unassigned) [Example 89-(b)] | E (metabolic rate≥250 pmol/min/mg protein) | ≥ 50 |  | 3 to 6
8 | CC[C@@H]1CN(Cc2cc(C(c3ccc4c(nnn4C)c3C)C(C)(C)C(=O)O)ccc2C)Cc2cc3cccnc3cc2O1 (single isomer, unassigned) [Example 39] | A (metabolic rate<100 pmol/min/mg protein) | ≥ 50 |  | 3 to 6
9 | CC[C@@H]1CN(Cc2cc(C(c3ccc4c(nnn4C)c3C)C(C)(C)C(=O)O)ccc2C)Cc2cnc3ccccc3c2O1 (single isomer, unassigned) [Example 47] | B (100≤metabolic rate<150 pmol/min/mg protein) | ≥ 50 |  | > 6
10 | CC[C@@H]1CN(Cc2cc(C(c3ccc4c(nnn4C)c3C)C(C)(C)C(=O)O)ccc2C)Cc2c(ccc3c2CCCC3)O1 (stereo partly drawn) [Example 5-(b), 3-(1,4-dimethyl-1H-benzo[d][1,2,3)triazol-5-yl)-3-(3-(((R)-4-ethyl-3,4,8,9,10,11-hexahydronaphtho(1,2-f) (1,4]oxazepin-2(1H)-yl)methyl)-4-methylphenyl)-2,2-dimethylpropanoic Acid] |  |  | 0.05 to 0.5 | 
11 | CC[C@@H]1CN(Cc2cc(C(c3ccc4c(nnn4C)c3C)C(C)(C)C(=O)O)ccc2C)Cc2cc3c(cc2O1)CCCC3 (single isomer, unassigned) [Example 33] | A (metabolic rate<100 pmol/min/mg protein) | ≥ 50 |  | 3 to 6
